Reference: patent publication US8669232B2, “Flavonol compounds, a bioactive extract/fraction from Ulmus wallichiana and its compounds for prevention for treatment of osteo-health related disorders” (Council of Scientific & Industrial Research, priority 2008, dated 2014)

Assays:
[1] = tested on: ovariectomized Sprague Dawley rats; assay: BMD by DEXA in ovariectomized (Ovx) rats, bone loss model; format: in vivo; settings: 90 days, compared with Ovx + vehicle; for BMD tibia head: 5 mg/kg body weight oral daily
Method: Bone mineral density of femur (global, head, neck), tibia (global, head, tibio-fibular separation point) and lumber vertebra (LV1, LV2, LV3, LV4) was determined by DEXA.
(§1) K058 at 1 to 10 mg/kg body weight were given daily by oral route to Sprague Dawley (180-200 g) rats after bilateral ovariectomy (Ovx). This is the most widely used animal model for osteopenia (bone loss) mimicking human condition of post-menopausal bone loss. The extract was given in gum acacia (vehicle). Sham operated rats and Ovx rats were used as controls and given only gum acacia. Each group consisted of 10 rats and the groups were as follows: sham intact, Ovx, Ovx+1 mg/kg K058 and Ovx+5 mg/kg K058. Treatment started 24 h after the surgery and continued for 90 days. After 90 days, the rats were first acclimatized and then kept in metabolic cages with no food but only water for 24 h to collect urine samples. After 24 h, rats were returned to the cages with food and water ad libitum with oral administration of the extract as before foe an additional 24 hour. Rats were then euthanized and autopsied to collect blood, bones (tibia, femur, L1-L4 vertebrae) and uterus.
as §1, with “K012” for “K058”, “doses of 1- and 5” for “1 to 10”, “(Ovx).” for “(Ovx). This is the most widely used animal model for osteopenia (bone loss) mimicking human condition of post-menopausal bone loss.”, “K012.” for “K058.”, “for” for “foe”

calvarial osteoblasts = assay: Semi-quantitative RT-PCR of osteogenic genes; format: cell-based, neonatal Sprague-Dawley rats; settings: 10^−7 M
Method: Neonatal rat calvarial cell cultures are prepared as described previously (Chattopadhyay et al., Endocrinology 145:3451-62, 2004) using slight modification. Briefly, for calvarial osteoblast cultures, frontal and parietal bones from neonatal Sprague-Dawley rats (1-3 day old) were digested in 0.1% collagenase/0.1% dispase in α-MEM to obtain 5 sequential digests. The second through fifth digests are combined and grown to confluence at 37° C. and 5% CO2 in air in α-MEM, supplemented with 10% fetal bovine serum (FBS), 2 mM glutamine, 100 U/ml penicillin-streptomycin, non-essential amino acid solution and sodium pyruvate.
RT-PCR was performed for assessing mRNA levels of Col1 (collagen type I), Cbfa-1 (Core binding factor-1), ALP (Alkaline phosphatase), OPN (osteopontin), BMP 2 (Bone morphogenic protein 2), OPG (Osteoprotegrin), and OCN (Osteocalcin). The house-keeping gene GAPDH (Glyceraldehyde-3-phosphate dehydrogenase) was used as the internal control in this study. RNAs were extracted at 0-, 4-, 8-, 12-, 24-, and 48 h. Total RNA was extracted using TRIzol reagent (Invitrogen). A single step RT PCR kit (Qaigen) was used to perform RT-PCR according to the manufacturer's instructions. Following gene specific primer pairs were used (Table 2).

[2] = 5.0 mg/kg body weight oral daily

SMILES	BMD tibio-fibular separation point (TFSP) ([1]; 1.0 mg/kg body weight oral daily)	BMD tibia head [1]	BMD lumber vertebra global [1, 2]	BMD second lumber vertebra [1, 2]	BMD femur neck ([1]; 5.0 mg/kg oral daily)	BMD tibia global ([1]; 5.0 mg/kg oral daily)	BMD tibio-fibular separation point (TFSP) ([1]; 5.0 mg/kg oral daily)	mRNA levels of OPG (Osteoprotegrin) (calvarial osteoblasts)	mRNA levels of Alkaline phosphatase (ALP) (calvarial osteoblasts; 0 to 48 h)	mRNA levels of bone morphogenic protein-2 (BMP-2) (calvarial osteoblasts; 0 to 48 h)	mRNA levels of collagen I (COL-1) (calvarial osteoblasts; 0 to 48 h)	mRNA levels of core binding factor-1 (Cbfa-1) (calvarial osteoblasts; 0 to 48 h)	mRNA levels of osteocalcin (OCN) (calvarial osteoblasts; 0 to 48 h)	BMD L4 vertebra ([1]; 1.0&5.0 mg/kg body weight oral daily)	BMD femur global ([1]; 1.0-5.0 mg/kg oral daily)	BMD femur neck ([1]; 1.0-5.0 mg/kg oral daily)	BMD femur shaft ([1]; 1.0-5.0 mg/kg oral daily)
O=c1c(O)c(-c2ccc(O)c(O)c2)oc2cc(O)c(C3O[C@H](CO)[C@@H](O)[C@H](O)[C@H]3O)c(O)c12 (stereo partly drawn) [K012, 6-Glucopyranosyl-3,3′,4′,5,7-pentahydroxyflavone]	increase	significantly higher	higher	higher	significantly higher	significantly higher	significantly higher										
O=C1c2c(cc(O)c([C@@H]3OC(CO)[C@@H](O)[C@H](O)C3O)c2O)O[C@@H](c2ccc(O)c(O)c2)[C@@H]1O (stereo partly drawn) [K058, (2S,3S)-(+)-3′,4′,5,7-tetrahydroxydihydroflavonol-6-C-β-D-glucopyranoside]		increased						increased	increased	increased	increased	increased	increased	higher	significantly higher	significantly higher	significantly higher
